The test addresses APJ receptor (Homo sapiens (Human), UniProt P35414). Kind of test: [35S]GTPγS binding assay on membranes from CHO cells stably expressing human APJ receptor. The format is biochemical. As to conditions: membranes of CHO cells stably expressing human APJ receptor, means of several independent experiments, read-out: Activity hAPJ SPA EC50 IP. In a few lines:
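EC50 values were obtained by non-linear regression of [35S]GTPγS (0.2 nM) binding after 90 min at RT, with nonspecific binding defined by 100 μM GTPγS. Reactions used human APJ–expressing CHO cell membranes on WGA PS beads in HEPES pH 7.5 buffer with 5 mM MgCl2, 200 mM NaCl, 3 μM GDP and 0.1% BSA.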

7 molecules from US10736883B2, “Triazole furan compounds as agonists of the APJ receptor” (AMGEN INC., priority 2016, dated 2020) can be followed below.

Chain of APJ receptor (P35414 whole entry): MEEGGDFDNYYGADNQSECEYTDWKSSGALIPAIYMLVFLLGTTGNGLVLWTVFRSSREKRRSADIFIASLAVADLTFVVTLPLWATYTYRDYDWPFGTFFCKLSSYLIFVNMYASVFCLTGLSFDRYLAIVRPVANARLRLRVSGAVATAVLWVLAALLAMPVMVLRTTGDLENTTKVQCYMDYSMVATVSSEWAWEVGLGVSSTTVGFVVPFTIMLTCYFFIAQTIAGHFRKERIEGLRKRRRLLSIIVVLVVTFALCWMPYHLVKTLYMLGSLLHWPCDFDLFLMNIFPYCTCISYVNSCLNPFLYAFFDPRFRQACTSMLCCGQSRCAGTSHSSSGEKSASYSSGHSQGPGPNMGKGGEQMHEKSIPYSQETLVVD

Turning to `CO[C@H](c1ncc(Cl)cn1)[C@H](C)S(=O)(=O)Nc1nnc(-c2ccc(C)o2)n1[C@H]1CCCOC1` [Example 390.0, (1R,2S)-1-(5-chloropyrimidin-2-yl)-1-methoxy-N-(5-(5-methylfuran-2-yl)-4-((S)-tetrahydro-2H-pyran-3-yl)-4H-1,2,4-triazol-3-yl)propane-2-sulfonamide], the EC50 was found to be 13000 pM.

For `COc1cccc(OC)c1-n1c(NS(=O)(=O)[C@H](C)Cc2ccc(Br)cn2)nnc1-c1ccco1` (single isomer, unassigned) [Example 23.0, (2R)-1-(5-bromo-2-pyridinyl)-N-(4-(2,6-dimethoxyphenyl)-5-(2-furanyl)-4H-1,2,4-triazol-3-yl)-2-propanesulfonamide or (2S)-1-(5-bromo-2-pyridinyl)-N-(4-(2,6-dimethoxyphenyl)-5-(2-furanyl)-4H-1,2,4-triazol-3-yl)-2-propanesulfonamide], the EC50 was 360 pM.

On to `COc1cccc(OC)c1-n1c(NS(=O)(=O)[C@@H](C)[C@@H](O)c2ccc(Cl)cc2S(C)(=O)=O)nnc1-c1ccc(C)o1` (single isomer, unassigned) [Example 153.0, (1R,2R)-1-(4-Chloro-2-(methylsulfonyl)phenyl)-N-(4-(2,6-dimethoxyphenyl)-5-(5-methyl-2-furanyl)-4H-1,2,4-triazol-3-yl)-1-hydroxy-2-propanesulfonamide or (1S,2S)-1-(4-chloro-2-(methylsulfonyl)phenyl)-N-(4-(2,6-dimethoxyphenyl)-5-(5-methyl-2-furanyl)-4H-1,2,4-triazol-3-yl)-1-hydroxy-2-propanesulfonamide], for which the EC50 is 260 pM.

In the case of `COc1cccc(OC)c1-n1c(NS(=O)(=O)[C@@H](C)[C@@H](O)c2ccc(F)cn2)nnc1-c1ccc(C)o1` (single isomer, unassigned) [Example 57.0], the EC50 turned out to be 110 pM.

With `CC[C@H](Cc1ncc(F)cn1)S(=O)(=O)Nc1nnc(-c2ccc(C)o2)n1-c1c(OC)cccc1OC` (single isomer, unassigned) [Example 134.0, (R)—N-(4-(2,6-dimethoxyphenyl)-5-(5-methylfuran-2-yl)-4H-1,2,4-triazol-3-yl)-1-(5-fluoropyrimidin-2-yl)butane-2-sulfonamide or (S)—N-(4-(2,6-dimethoxyphenyl)-5-(5-methylfuran-2-yl)-4H-1,2,4-triazol-3-yl)-1-(5-fluoropyrimidin-2-yl)butane-2-sulfonamide], the EC50 is 10000 pM.

For the molecule “(1R,2S)-1-(5-chloro-2-pyrimidinyl)-N-(4-(2,6-dimethoxyphenyl)-5-(5-methyl-2-furanyl)-4H-1,2,4-triazol-3-yl)-1-hydroxy-2-propanesulfonamide or (1S,2R)-1-(5-chloro-2-pyrimidinyl)-N-(4-(2,6-dimethoxyphenyl)-5-(5-methyl-2-furanyl)-4H-1,2,4-triazol-3-yl)-1-hydroxy-2-propanesulfonamide [Example 216.0]”, the EC50 is 230 pM.

As for `COc1cccc(OC)c1-n1c(NS(=O)(=O)[C@H](C)[C@@H](O)c2nccn2C)nnc1-c1ccc(C)o1` (single isomer, unassigned) [Example 297.0, (1S,2R)—N-(4-(2,6-Dimethoxyphenyl)-5-(5-methyl-2-furanyl)-4H-1,2,4-triazol-3-yl)-1-hydroxy-1-(1-methyl-1H-imidazol-2-yl)-2-propanesulfonamide or (1R,2S)—N-(4-(2,6-dimethoxyphenyl)-5-(5-methyl-2-furanyl)-4H-1,2,4-triazol-3-yl)-1-hydroxy-1-(1-methyl-1H-imidazol-2-yl)-2-propanesulfonamide], the EC50 was 8800 pM.

As a reminder, the EC50 is the concentration at which the effect is half-maximal.
